From patent publication US6610309B2, “Therapeutic composition comprising an antigen or an in vivo generator of a compound comprising an amino acid sequence” (Societe d'Exploitation de Produits pour les Industries …, priority 1995, dated 2003)
Read-outs that look alike come from different tables or passages of the source.

Columns and labels:
[1] = tested on: total IgG and total IgG1; experiment: Humoral response, comparison of calcium salts (Example 4); type: in vivo, OF1 mice; conditions: 0.5 mg of calcium salt, 50 μg antigen, 100 μl s.c.; injection repeated on D28; antibodies assayed on D42
Description: (§1) The therapeutic compositions were injected subcutaneously.
(§2) The antibodies were assayed 42 days after the vaccination.
(§3) Injection of the therapeutic composition was repeated on D28. The antibodies were assayed on D42.

[2] = tested on: IgG2a; experiment: Cell response, comparison of calcium salts (Example 4); type: in vivo, OF1 mice; conditions: 0.5 mg of calcium salt, 50 μg antigen, 100 μl s.c.; injection repeated on D28; antibodies assayed on D42
Description: as §1, §2, §3

[3] = tested on: mice; conditions: 0.5 mg of calcium salt, 50 μg antigen, 100 μl s.c.; observed during the tests of Example 4
Description: as §1
Each therapeutic composition, 100 μl in volume, contained 50 μg of antigen and, except for the control, 0.5 mg of a calcium salt, such that the calcium concentration of each composition was 2.7 mg.
as §3

[4] = tested on: anti-BSA antibodies; type: in vivo, OF1 mice; conditions: last dilution above background noise; for anti-BSA antibody/ primary response (D14) / anti-BSA antibody/ primary response (D28): 50 μg BSA in 100 μl s.c. on D0
Description: (§4) The examples were performed on OF1 mice whose average weight was between 18 and 20 g.
The results expressed are an average of the results obtained on 10 mice.
(§5) The therapeutic compositions comprised Sigma Grade V bovine serum albumin (BSA) as antigen.
as §1
The humoral immune response was determined by assay of the total IgG and of the total IgG1, according to the ELISA method.
The antibody levels mentioned in the examples correspond to the last dilution above the background noise.
Therapeutic compositions (or doses) of 100 μl each, comprising 50 μg of BSA, are prepared.
These therapeutic compositions were injected into the mice on D0 (i.e. the day of injection).
The level of anti-BSA antibodies was determined 14 and 28 days after the injection (primary response).
On D28, the same therapeutic composition was injected into the same mice.
The level of anti-BSA antibodies was determined on D42 and D56.

[5] = tested on: mice; conditions: in vivo, sc
Description: as §4, §5, §1
A therapeutic composition 100 μl in volume, comprising 50 μg of antigen, was injected into various batches of mice each comprising 5 mice. The local reactions (lesions and granulomae) were evaluated on D8 and D35.

[6] = adjuvant 3 mg/dose, 50 μg BSA s.c. on D0, repeated on D28
[7] = adjuvant 0.5 mg/dose, 50 μg BSA s.c. on D0, repeated on D28
[8] = adjuvant 1 mg/dose, 50 μg BSA in 100 μl s.c. on D0, repeated on D28
[9] = adjuvant 2 mg/dose, 50 μg BSA s.c. on D0, repeated on D28

## O=C([O-])[O-].[Ca+2] [CaCO3]
[1]
  Humoral response: 32,000
[2]
  Cell response: 4000

## [Ca+2].[Cl-].[Cl-] [CaCl2]
[1]
  Humoral response: 64,000
[2]
  Cell response: 24,000
[3]
  lesions induced: very large lesions

## O=P([O-])([O-])O.[Ca+2] [CaHPO4]
[1]
  Humoral response: 64,000
[2]
  Cell response: 10,000

## O=C([O-])[C@H](O)[C@@H](O)[C@H](O)[C@H](O)CO.O=C([O-])[C@H](O)[C@@H](O)[C@H](O)[C@H](O)CO.[Ca+2] [GluCa]
[4]; adjuvant 3 mg/dose
  anti-BSA antibody/ primary response (D14): 116,000
  anti-BSA antibody/ primary response (D28): 8000
[4]; [6]
  anti-BSA antibody/ primary response (D42): 128,000
  anti-BSA antibody/ primary response (D56): 96,000
[1]
  Humoral response: 128,000
[2]
  Cell response: 32,000
[5]
  local reactions (D8), Mouse No. 1: −
  local reactions (D8), Mouse No. 2: −
  local reactions (D8), Mouse No. 3: −
  local reactions (D8), Mouse No. 4: −
  local reactions (D8), Mouse No. 5: −
  local reactions (D35), Mouse No. 1: −
  local reactions (D35), Mouse No. 2: −
  local reactions (D35), Mouse No. 3: −
  local reactions (D35), Mouse No. 4: −
  local reactions (D35), Mouse No. 5: −

## O=C([O-])[C@H](O)[C@@H](O)[C@H](O)[C@H](O)CO.[K+] [GluK]
[5]
  local reactions (D8), Mouse No. 1: −
  local reactions (D8), Mouse No. 2: −
  local reactions (D8), Mouse No. 3: −
  local reactions (D8), Mouse No. 4: −
  local reactions (D8), Mouse No. 5: −
  local reactions (D35), Mouse No. 1: −
  local reactions (D35), Mouse No. 2: −
  local reactions (D35), Mouse No. 3: −
  local reactions (D35), Mouse No. 4: −
  local reactions (D35), Mouse No. 5: −

## O=C([O-])[C@H](O)[C@@H](O)[C@H](O)[C@H](O)CO.O=C([O-])[C@H](O)[C@@H](O)[C@H](O)[C@H](O)CO.[Zn+2] [GluZn]
[4]; adjuvant 0.5 mg/dose
  anti-BSA antibody/ primary response (D14): 16,000
  anti-BSA antibody/ primary response (D28): 6000
[4]; [7]
  anti-BSA antibody/ primary response (D42): 96,000
  anti-BSA antibody/ primary response (D56): 96,000

## O=C([O-])C(O)C(O)C(O)C(O)C(O)CO.O=C([O-])C(O)C(O)C(O)C(O)C(O)CO.[Zn+2] (centres unmarked) [GluhpZn]
[4]; [8]
  anti-BSA antibody/ primary response (D42): 64,000
  anti-BSA antibody/ primary response (D56): 64,000
[4]; adjuvant 1 mg/dose
  anti-BSA antibody/ primary response (D28): 6000
[4]; adjuvant 1 mg/dose, average of 10 mice
  anti-BSA antibody/ primary response (D14): 8000

## O=P([O-])([O-])OCC(O)CO.[Ca+2] (centres unmarked) [GlyCa]
[4]; adjuvant 2 mg/dose
  anti-BSA antibody/ primary response (D14): 4000
  anti-BSA antibody/ primary response (D28): 2000
[4]; [9]
  anti-BSA antibody/ primary response (D42): 64,000
  anti-BSA antibody/ primary response (D56): 64,000

## O=P([O-])([O-])OCC(O)CO.[Mn+2] (centres unmarked) [GlyMn]
[5]
  local reactions (D8), Mouse No. 2: +
  local reactions (D8), Mouse No. 3: ++
  local reactions (D8), Mouse No. 4: +
  local reactions (D8), Mouse No. 5: −
  local reactions (D35), Mouse No. 1: −
  local reactions (D35), Mouse No. 2: +
  local reactions (D35), Mouse No. 3: +
  local reactions (D35), Mouse No. 4: +
  local reactions (D35), Mouse No. 5: +

## [Cl][Mn][Cl] [MnCl^2+, reference compound]
[5]
  local reactions (D8), Mouse No. 1: +++
  local reactions (D35), Mouse No. 1: +++
